In PMC13210772, “Dual FLT3/MAPK14 Proteolysis-Targeting Chimera (PROTAC) Induces Potent Acute Myeloid Leukemia Cell Death” (Pharmaceuticals, 2026):

Assays:
Assay in all cases: NanoBRET CELLinib128
Format in all cases: binding
[1] = target: T1, ULK3v1 (Homo sapiens, UniProt Q6PHR2); details: 1 µM; 100% no effect, 0% complete tracer displacement
T1 construct: Full-length kinase ORF (Promega, Madison, WI, USA) cloned in frame with a NanoLuc-vector; host or cells: HEK293T
Method: (§1) To get an impression about the binding strength of the PROTAC MA191 and the reference inhibitor MA68 to other kinases besides FLT3-ITD the binding on a kinase panel of further 128 representative protein kinases at 1 μM concentration was tested using the NanoBRET^TM cellular target engagement assay (CELLinib128 assay, CELLinib GmbH, Frankfurt, Germany). […] In none of the 128 kinases MA191 was able to displace the tracer (inhibitor) used by more than 50%, Table S1, Supplementary Information).
(§2) The CELLinib128 assay was performed by CELLinib GmbH, Frankfurt (Germany) as described previously. In brief: Full-length kinase ORF (Promega, Madison, WI, USA) cloned in frame with a NanoLuc-vector was transfected into HEK293T cells in Opti-MEM without phenol red (Life Technologies, Carlsbad, CA, USA) at a density of 2 × 10^5 cells/mL using FuGENE HD (Promega, E2312) and proteins were allowed to express for 20 h. For CDKs, where indicated below, an excess of an activator without an NLuc-fusion was cotransfected. […] The system was allowed to equilibrate at 37 °C for 2 h and 5% CO2 prior to BRET measurements. For PKCs, a chemical activator PMA was added in a final concentration of 1 µM was added together with test compounds and tracers (Promega, V1171). To measure BRET, NanoBRET^TM NanoGlo substrate + extracellular NanoLuc inhibitor (Promega, N2160) were added as per the manufacturer’s protocol, and filtered luminescence was measured (450 nm BP filter (donor) and 610 nm LP filter (acceptor)). For the 1-shot test compounds, data were normalized to the tracer control and the background control or control compound plateau and an average and SD were calculated. […] For the control compounds competitive displacement data were normalized to the tracer Ctrl and the background Ctrl and then plotted and fitted using GraphPad Prism 10 software using a normalized 3-parameter curve fit with the following equation: Y = 100/(1 + 10^X−LogIC50).

[2] = target: T2, MAP3K9 (Homo sapiens, UniProt P80192); details: 100% no effect, 0% complete tracer displacement, read-out: Tracer bound
T2 construct: Full-length kinase ORF (Promega, Madison, WI, USA) cloned in frame with a NanoLuc-vector was transfected into HEK293T cells; host or cells: HEK293T
Method: as §1, §2

[3] = target: T3, TNK1 (Homo sapiens, UniProt Q13470); details: 100% no effect, 0% complete tracer displacement, read-out: Tracer bound
T3 construct: Full-length kinase ORF (Promega, Madison, WI, USA) cloned in frame with a NanoLuc-vector; host or cells: HEK293T
Method: as §1, §2

[4] = target: T4, PAK4 (Homo sapiens, UniProt O96013); details: 100% no effect, 0% complete tracer displacement, read-out: Tracer bound
T4 construct: Full-length kinase ORF (Promega, Madison, WI, USA) cloned in frame with a NanoLuc-vector was transfected into HEK293T cells; host or cells: HEK293T
Method: as §1, §2

[5] = target: T5, PRKAA2 (Homo sapiens, UniProt P54646); details: 100% no effect, 0% complete tracer displacement, read-out: Tracer bound
T5 construct: Full-length kinase ORF (Promega, Madison, WI, USA) cloned in frame with a NanoLuc-vector was transfected into HEK293T cells; host or cells: HEK293T
T5 sequence (P54646 whole entry): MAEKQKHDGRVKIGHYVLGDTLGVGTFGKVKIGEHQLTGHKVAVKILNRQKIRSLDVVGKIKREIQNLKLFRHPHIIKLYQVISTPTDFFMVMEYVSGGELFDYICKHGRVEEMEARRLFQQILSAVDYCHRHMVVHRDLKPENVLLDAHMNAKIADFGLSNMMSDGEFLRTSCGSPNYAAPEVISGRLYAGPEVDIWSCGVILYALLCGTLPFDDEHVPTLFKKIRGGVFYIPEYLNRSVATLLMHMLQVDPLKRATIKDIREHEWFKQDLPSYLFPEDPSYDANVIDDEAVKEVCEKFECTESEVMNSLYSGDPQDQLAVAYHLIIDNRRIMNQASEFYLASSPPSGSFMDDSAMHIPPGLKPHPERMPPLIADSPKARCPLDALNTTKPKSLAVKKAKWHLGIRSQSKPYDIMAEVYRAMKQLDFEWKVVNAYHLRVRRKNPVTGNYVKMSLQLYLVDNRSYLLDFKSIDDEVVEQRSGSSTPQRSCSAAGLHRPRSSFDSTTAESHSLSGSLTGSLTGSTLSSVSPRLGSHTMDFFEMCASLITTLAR
Method: as §1, §2

[6] = target: T6, MAPK6 (Homo sapiens, UniProt Q16659); details: 100% no effect, 0% complete tracer displacement, read-out: Tracer bound
T6 construct: Full-length kinase ORF (Promega, Madison, WI, USA) cloned in frame with a NanoLuc-vector was transfected into HEK293T cells; host or cells: HEK293T
Method: as §1, §2

[7] = target: T7, STK38L (Homo sapiens, UniProt Q9Y2H1); details: 100% no effect, 0% complete tracer displacement, read-out: Tracer bound
T7 construct: Full-length kinase ORF (Promega, Madison, WI, USA) cloned in frame with a NanoLuc-vector was transfected into HEK293T cells; host or cells: HEK293T
Method: as §1, §2

[8] = target: T8, STK33 (Homo sapiens, UniProt Q9BYT3); details: 100% no effect, 0% complete tracer displacement, read-out: Tracer bound
T8 construct: Full-length kinase ORF (Promega, Madison, WI, USA) cloned in frame with a NanoLuc-vector was transfected into HEK293T cells; host or cells: HEK293T
Method: as §1, §2

[9] = target: T9, BRSK1 (Homo sapiens, UniProt Q8TDC3); details: 100% no effect, 0% complete tracer displacement, read-out: Tracer bound
T9 construct: Full-length kinase ORF (Promega, Madison, WI, USA) cloned in frame with a NanoLuc-vector was transfected into HEK293T cells; host or cells: HEK293T
Method: as §1, §2

[10] = target: T10, FGFR2 (Homo sapiens, UniProt P21802); details: 100% no effect, 0% complete tracer displacement, read-out: Tracer bound
T10 construct: Full-length kinase ORF (Promega, Madison, WI, USA) cloned in frame with a NanoLuc-vector was transfected into HEK293T cells; host or cells: HEK293T
Method: as §1, §2

[11] = target: T11, PLK4 (Homo sapiens, UniProt O00444); details: 100% no effect, 0% complete tracer displacement, read-out: Tracer bound
T11 construct: Full-length kinase ORF (Promega, Madison, WI, USA) cloned in frame with a NanoLuc-vector was transfected into HEK293T cells; host or cells: HEK293T
Method: as §1, §2

[12] = target: T12, LATS1 (Homo sapiens, UniProt O95835); details: 100% no effect, 0% complete tracer displacement, read-out: Tracer bound
T12 construct: Full-length kinase ORF (Promega, Madison, WI, USA) cloned in frame with a NanoLuc-vector was transfected into HEK293T cells; host or cells: HEK293T
Method: as §1, §2

[13] = target: T13, CDK2-CCNE1 (Homo sapiens, UniProt P24941); details: 1 µM; 100% no effect, 0% complete tracer displacement
T13 construct: Full-length kinase ORF (Promega, Madison, WI, USA) cloned in frame with a NanoLuc-vector was transfected into HEK293T cells; host or cells: HEK293T
Method: as §1, §2

[14] = target: T14, RIOK2 (Homo sapiens, UniProt Q9BVS4); details: 100% no effect, 0% complete tracer displacement, read-out: Tracer bound
T14 construct: Full-length kinase ORF (Promega, Madison, WI, USA) cloned in frame with a NanoLuc-vector was transfected into HEK293T cells; host or cells: HEK293T
Method: as §1, §2

[15] = target: T15, PRKAA1 (Homo sapiens, UniProt Q13131); details: 100% no effect, 0% complete tracer displacement, read-out: Tracer bound
T15 construct: Full-length kinase ORF (Promega, Madison, WI, USA) cloned in frame with a NanoLuc-vector was transfected into HEK293T cells; host or cells: HEK293T
Method: as §1, §2

[16] = target: T16, EPHA6 (Homo sapiens, UniProt Q9UF33); details: 100% no effect, 0% complete tracer displacement, read-out: Tracer bound
T16 construct: Full-length kinase ORF (Promega, Madison, WI, USA) cloned in frame with a NanoLuc-vector was transfected into HEK293T cells; host or cells: HEK293T
T16 sequence (Q9UF33 23-1036): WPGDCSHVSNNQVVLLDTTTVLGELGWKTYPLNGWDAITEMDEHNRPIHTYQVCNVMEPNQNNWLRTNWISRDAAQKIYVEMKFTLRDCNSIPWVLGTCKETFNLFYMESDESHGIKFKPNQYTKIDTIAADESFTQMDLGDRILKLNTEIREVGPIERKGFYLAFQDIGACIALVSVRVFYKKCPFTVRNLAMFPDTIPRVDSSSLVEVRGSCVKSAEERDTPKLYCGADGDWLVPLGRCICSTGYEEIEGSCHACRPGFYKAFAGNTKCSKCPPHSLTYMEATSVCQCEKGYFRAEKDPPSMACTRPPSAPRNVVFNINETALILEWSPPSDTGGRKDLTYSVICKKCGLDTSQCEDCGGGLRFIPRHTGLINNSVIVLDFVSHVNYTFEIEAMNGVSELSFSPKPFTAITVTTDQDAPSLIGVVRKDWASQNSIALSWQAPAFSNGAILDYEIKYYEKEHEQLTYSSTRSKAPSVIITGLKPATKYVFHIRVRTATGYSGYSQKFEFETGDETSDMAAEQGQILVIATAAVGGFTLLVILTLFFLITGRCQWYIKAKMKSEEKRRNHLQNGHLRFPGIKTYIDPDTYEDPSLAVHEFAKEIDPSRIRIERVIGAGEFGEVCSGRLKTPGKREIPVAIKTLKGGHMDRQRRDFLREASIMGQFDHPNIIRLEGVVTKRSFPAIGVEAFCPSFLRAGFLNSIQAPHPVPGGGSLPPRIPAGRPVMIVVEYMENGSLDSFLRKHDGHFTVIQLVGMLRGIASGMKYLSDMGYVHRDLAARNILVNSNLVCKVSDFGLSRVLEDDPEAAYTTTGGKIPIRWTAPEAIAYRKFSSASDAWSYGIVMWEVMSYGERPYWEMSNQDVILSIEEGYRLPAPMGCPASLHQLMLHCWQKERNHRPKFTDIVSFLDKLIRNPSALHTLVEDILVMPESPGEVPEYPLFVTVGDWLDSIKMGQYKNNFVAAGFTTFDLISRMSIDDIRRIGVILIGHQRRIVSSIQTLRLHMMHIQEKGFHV
Method: as §1, §2

[17] = target: T17, RPS6KA1 (Homo sapiens, UniProt Q15418); details: 100% no effect, 0% complete tracer displacement, read-out: Tracer bound
T17 construct: Full-length kinase ORF (Promega, Madison, WI, USA) cloned in frame with a NanoLuc-vector was transfected into HEK293T cells; host or cells: HEK293T
T17 sequence (Q15418 whole entry): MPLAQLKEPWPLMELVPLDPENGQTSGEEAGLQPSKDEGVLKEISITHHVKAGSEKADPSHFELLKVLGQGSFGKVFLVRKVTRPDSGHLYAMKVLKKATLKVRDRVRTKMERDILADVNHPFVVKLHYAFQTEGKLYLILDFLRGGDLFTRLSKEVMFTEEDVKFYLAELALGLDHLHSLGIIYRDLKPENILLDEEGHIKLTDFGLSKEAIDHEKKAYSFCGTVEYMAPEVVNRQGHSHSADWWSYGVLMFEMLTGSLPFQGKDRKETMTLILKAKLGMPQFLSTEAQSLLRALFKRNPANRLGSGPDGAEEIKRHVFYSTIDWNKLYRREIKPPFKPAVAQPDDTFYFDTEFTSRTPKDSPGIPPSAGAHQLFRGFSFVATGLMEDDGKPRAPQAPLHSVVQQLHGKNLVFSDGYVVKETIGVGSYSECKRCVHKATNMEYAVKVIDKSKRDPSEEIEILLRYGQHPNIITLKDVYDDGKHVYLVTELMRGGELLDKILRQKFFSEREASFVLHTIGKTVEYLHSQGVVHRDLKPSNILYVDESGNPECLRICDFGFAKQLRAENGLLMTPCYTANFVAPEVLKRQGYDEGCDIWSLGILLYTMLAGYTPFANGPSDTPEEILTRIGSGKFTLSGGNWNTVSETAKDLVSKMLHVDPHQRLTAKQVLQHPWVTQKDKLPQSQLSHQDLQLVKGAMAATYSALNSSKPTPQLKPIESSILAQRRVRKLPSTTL
Method: as §1, §2

[18] = target: T18, MAP3K11 (Homo sapiens, UniProt Q16584); details: 1 µM; 100% no effect, 0% complete tracer displacement
T18 construct: Full-length kinase ORF (Promega, Madison, WI, USA) cloned in frame with a NanoLuc-vector was transfected into HEK293T cells; host or cells: HEK293T
Method: as §1, §2

[19] = target: T19, CDK18-CCNY (Homo sapiens, UniProt Q07002); details: 100% no effect, 0% complete tracer displacement, read-out: Tracer bound
T19 construct: Full-length kinase ORF (Promega, Madison, WI, USA) cloned in frame with a NanoLuc-vector was transfected into HEK293T cells; host or cells: HEK293T
Method: as §1, §2

[20] = target: T20, TEK (Homo sapiens, UniProt Q02763); details: 100% no effect, 0% complete tracer displacement, read-out: Tracer bound
T20 construct: Full-length kinase ORF (Promega, Madison, WI, USA) cloned in frame with a NanoLuc-vector was transfected into HEK293T cells; host or cells: HEK293T
Method: as §1, §2

[21] = target: T21, MAPK9 (Homo sapiens, UniProt P45984); details: 1 µM; 100% no effect, 0% complete tracer displacement
T21 construct: Full-length kinase ORF (Promega, Madison, WI, USA) cloned in frame with a NanoLuc-vector was transfected into HEK293T cells; host or cells: HEK293T
Method: as §1, §2

[22] = target: T22, AURKC (Homo sapiens, UniProt Q9UQB9); details: 100% no effect, 0% complete tracer displacement, read-out: Tracer bound
T22 construct: Full-length kinase ORF (Promega, Madison, WI, USA) cloned in frame with a NanoLuc-vector was transfected into HEK293T cells; host or cells: HEK293T
Method: as §1, §2

[23] = target: T23, ULK2 (Homo sapiens, UniProt Q8IYT8); details: 100% no effect, 0% complete tracer displacement, read-out: Tracer bound
T23 construct: Full-length kinase ORF (Promega, Madison, WI, USA) cloned in frame with a NanoLuc-vector; host or cells: HEK293T
T23 sequence (Q8IYT8 whole entry): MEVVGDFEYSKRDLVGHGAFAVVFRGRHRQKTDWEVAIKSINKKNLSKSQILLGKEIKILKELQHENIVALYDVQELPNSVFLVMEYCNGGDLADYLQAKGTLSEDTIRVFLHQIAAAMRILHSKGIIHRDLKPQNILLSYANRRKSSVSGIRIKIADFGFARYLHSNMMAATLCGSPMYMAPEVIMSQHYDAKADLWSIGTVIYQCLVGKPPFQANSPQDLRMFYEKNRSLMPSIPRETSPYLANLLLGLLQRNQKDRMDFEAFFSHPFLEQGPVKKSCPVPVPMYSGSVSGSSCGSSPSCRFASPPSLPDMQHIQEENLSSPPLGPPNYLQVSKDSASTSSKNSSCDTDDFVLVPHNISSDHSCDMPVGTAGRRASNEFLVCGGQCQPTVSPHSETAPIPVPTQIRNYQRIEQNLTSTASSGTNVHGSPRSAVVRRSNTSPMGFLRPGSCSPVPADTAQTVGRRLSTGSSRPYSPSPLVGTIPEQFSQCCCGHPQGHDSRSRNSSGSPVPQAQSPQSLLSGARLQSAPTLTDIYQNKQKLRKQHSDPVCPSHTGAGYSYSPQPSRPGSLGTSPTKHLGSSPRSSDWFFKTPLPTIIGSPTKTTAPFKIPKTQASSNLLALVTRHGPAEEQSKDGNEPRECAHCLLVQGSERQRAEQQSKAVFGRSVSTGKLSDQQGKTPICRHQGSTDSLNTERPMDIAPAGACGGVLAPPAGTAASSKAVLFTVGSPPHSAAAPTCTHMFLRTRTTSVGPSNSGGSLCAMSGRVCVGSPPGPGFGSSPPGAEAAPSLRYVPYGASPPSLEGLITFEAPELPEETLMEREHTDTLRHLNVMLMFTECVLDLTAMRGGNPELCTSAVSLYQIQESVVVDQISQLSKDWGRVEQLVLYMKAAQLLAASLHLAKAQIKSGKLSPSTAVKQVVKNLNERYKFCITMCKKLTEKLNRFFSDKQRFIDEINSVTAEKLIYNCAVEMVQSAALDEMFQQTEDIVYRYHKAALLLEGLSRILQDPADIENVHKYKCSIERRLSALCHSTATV
Method: as §1, §2

[24] = target: T24, FGFR1 (Homo sapiens, UniProt P11362); details: 100% no effect, 0% complete tracer displacement, read-out: Tracer bound
T24 construct: Full-length kinase ORF (Promega, Madison, WI, USA) cloned in frame with a NanoLuc-vector was transfected into HEK293T cells; host or cells: HEK293T
Method: as §1, §2

[25] = target: T25, PTK2 (Homo sapiens, UniProt Q05397); details: 100% no effect, 0% complete tracer displacement, read-out: Tracer bound
T25 construct: Full-length kinase ORF (Promega, Madison, WI, USA) cloned in frame with a NanoLuc-vector was transfected into HEK293T cells; host or cells: HEK293T
Method: as §1, §2

[26] = target: T26, HUNK (Homo sapiens, UniProt P57058); details: 100% no effect, 0% complete tracer displacement, read-out: Tracer bound
T26 construct: Full-length kinase ORF (Promega, Madison, WI, USA) cloned in frame with a NanoLuc-vector was transfected into HEK293T cells; host or cells: HEK293T
Method: as §1, §2

[27] = target: T27, ERN2 (Homo sapiens, UniProt Q76MJ5); details: 100% no effect, 0% complete tracer displacement, read-out: Tracer bound
T27 construct: Full-length kinase ORF (Promega, Madison, WI, USA) cloned in frame with a NanoLuc-vector was transfected into HEK293T cells; host or cells: HEK293T
T27 sequence (Q76MJ5 35-926): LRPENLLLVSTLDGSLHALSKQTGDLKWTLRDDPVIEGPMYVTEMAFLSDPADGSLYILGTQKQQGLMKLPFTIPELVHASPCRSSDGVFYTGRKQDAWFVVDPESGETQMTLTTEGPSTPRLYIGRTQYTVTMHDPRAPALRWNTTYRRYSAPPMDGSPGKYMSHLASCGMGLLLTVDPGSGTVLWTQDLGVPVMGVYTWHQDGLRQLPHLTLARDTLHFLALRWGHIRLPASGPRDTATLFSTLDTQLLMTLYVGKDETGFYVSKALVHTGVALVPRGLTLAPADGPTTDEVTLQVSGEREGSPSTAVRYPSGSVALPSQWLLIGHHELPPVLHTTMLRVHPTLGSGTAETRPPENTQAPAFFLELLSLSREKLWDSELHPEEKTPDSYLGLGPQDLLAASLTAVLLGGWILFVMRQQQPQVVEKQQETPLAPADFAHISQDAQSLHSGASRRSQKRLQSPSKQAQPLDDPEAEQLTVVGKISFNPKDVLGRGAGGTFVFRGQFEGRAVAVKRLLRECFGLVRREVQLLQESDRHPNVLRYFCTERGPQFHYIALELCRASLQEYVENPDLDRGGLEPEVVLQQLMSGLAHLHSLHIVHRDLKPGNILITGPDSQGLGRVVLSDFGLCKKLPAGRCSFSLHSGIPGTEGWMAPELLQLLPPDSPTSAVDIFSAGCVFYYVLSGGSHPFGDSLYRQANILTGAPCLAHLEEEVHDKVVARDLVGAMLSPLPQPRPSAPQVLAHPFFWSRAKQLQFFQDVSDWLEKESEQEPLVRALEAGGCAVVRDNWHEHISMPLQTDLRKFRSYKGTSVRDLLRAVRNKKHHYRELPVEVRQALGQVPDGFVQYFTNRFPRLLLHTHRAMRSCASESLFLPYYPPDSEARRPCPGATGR
Method: as §1, §2

[28] = target: T28, MAP4K1 (Homo sapiens, UniProt Q92918); details: 100% no effect, 0% complete tracer displacement, read-out: Tracer bound
T28 construct: Full-length kinase ORF (Promega, Madison, WI, USA) cloned in frame with a NanoLuc-vector was transfected into HEK293T cells; host or cells: HEK293T
Method: as §1, §2

[29] = target: T29, CDK4-CCND3 (Homo sapiens, UniProt P11802); details: 100% no effect, 0% complete tracer displacement, read-out: Tracer bound
T29 construct: Full-length kinase ORF (Promega, Madison, WI, USA) cloned in frame with a NanoLuc-vector was transfected into HEK293T cells; host or cells: HEK293T
Method: as §1, §2

[30] = target: T30, MYLK3 (Homo sapiens, UniProt Q32MK0); details: 100% no effect, 0% complete tracer displacement, read-out: Tracer bound
T30 construct: Full-length kinase ORF (Promega, Madison, WI, USA) cloned in frame with a NanoLuc-vector was transfected into HEK293T cells; host or cells: HEK293T
T30 sequence (Q32MK0 whole entry): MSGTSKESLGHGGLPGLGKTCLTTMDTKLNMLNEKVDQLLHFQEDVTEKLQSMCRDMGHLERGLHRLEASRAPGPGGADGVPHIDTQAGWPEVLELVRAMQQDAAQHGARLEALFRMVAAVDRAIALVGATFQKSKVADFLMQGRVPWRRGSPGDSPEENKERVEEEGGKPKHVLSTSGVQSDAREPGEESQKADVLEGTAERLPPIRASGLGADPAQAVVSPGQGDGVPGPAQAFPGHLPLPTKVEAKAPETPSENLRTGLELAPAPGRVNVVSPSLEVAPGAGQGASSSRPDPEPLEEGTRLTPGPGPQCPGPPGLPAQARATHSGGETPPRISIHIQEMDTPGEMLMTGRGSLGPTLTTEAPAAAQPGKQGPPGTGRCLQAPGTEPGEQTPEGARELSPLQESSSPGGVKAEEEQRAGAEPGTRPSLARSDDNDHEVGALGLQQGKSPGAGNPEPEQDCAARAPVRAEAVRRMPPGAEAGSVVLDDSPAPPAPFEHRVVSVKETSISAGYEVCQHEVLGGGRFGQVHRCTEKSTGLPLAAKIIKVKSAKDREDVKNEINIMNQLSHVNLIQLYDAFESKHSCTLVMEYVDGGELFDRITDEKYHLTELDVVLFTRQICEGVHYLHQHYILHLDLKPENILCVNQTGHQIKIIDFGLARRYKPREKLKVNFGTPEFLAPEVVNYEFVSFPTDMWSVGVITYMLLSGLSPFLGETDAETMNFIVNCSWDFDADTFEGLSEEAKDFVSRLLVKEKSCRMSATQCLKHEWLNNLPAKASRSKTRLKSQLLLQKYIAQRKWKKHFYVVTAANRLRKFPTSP
Method: as §1, §2

Q: What does the source list for Cc1ncsc1-c1ccc([C@H](C)NC(=O)[C@@H]2C[C@@H](O)CN2C(=O)[C@@H](NC(=O)[C@H]2CC[C@H](C(=O)N3CCN(CCNC(=O)c4cc(Oc5ccc(NC(=O)Nc6cc(C(C)(C)C)on6)cc5)ccn4)CC3)CC2)C(C)(C)C)cc1 [MA191, 4-(4-(3-(5-(tert-Butyl)isoxazol-3-yl)ureido)phenoxy)-N-(2-(4-(trans-4-(((S)-1-((2S,4R)-4-hydroxy-2-(((S)-1-(4-(4-methylthiazol-5-yl)phenyl)ethyl)carbamoyl)pyrrolidin-1-yl)-3,3-dimethyl-1-oxobutan-2-yl)carbamoyl)cyclohexanecarbonyl)piperazin-1-yl)ethyl)picolinamide]?
A: Tracer bound [1]: 107.8%; remaining activity at 1 µM [2]: 108%; remaining activity at 1 µM [3]: 120%; remaining activity at 1 µM [4]: 101%; remaining activity at 1 µM [5]: 119%; remaining activity at 1 µM [6]: 120%; remaining activity at 1 µM [7]: 90%; remaining activity at 1 µM [8]: 99%; remaining activity at 1 µM [9]: 107%; remaining activity at 1 µM [10]: 109%; remaining activity at 1 µM [11]: 112%; remaining activity at 1 µM [12]: 97.8%; Tracer bound [13]: 102.5%; remaining activity at 1 µM [14]: 115%; remaining activity at 1 µM [15]: 110%; remaining activity at 1 µM [16]: 82.5%; remaining activity at 1 µM [17]: 110%; Tracer bound [18]: 108.2%; remaining activity at 1 µM [19]: 95.9%; remaining activity at 1 µM [20]: 85.7%; Tracer bound [21]: 101.6%; remaining activity at 1 µM [22]: 110%; remaining activity at 1 µM [23]: 98.6%; remaining activity at 1 µM [24]: 103%; remaining activity at 1 µM [25]: 113%; remaining activity at 1 µM [26]: 103%; remaining activity at 1 µM [27]: 116%; remaining activity at 1 µM [28]: 105%; remaining activity at 1 µM [29]: 105%; remaining activity at 1 µM [30]: 108%
